Melting point and IC50 data for 27 compounds are collected here from patent US6831087B2, “Pyridine substituted isoquinoline derivatives” (Hoffmann-La Roche Inc., priority 2001, dated 2004).

Structures can show the parent of a compound that is named as a salt.

System in the first data set: not given
Assay: not given
Conditions: not given
With `CCNc1ccnc(N2CCc3ccccc3C2)c1` (as salt: fumarate) [Example 16, [2-(3,4-Dihydro-1H-isoquinolin-2-yl)-pyridin-4-yl]-ethyl-amine], the melting point (commonly the temperature of the solid-liquid transition) was 73 to 74 °C.
The compound `Clc1cccc2c1CN(c1ccncc1)CC2` (as salt: fumarate) [Example 26, 8-Chloro-2-pyridin-4-yl-1,2,3,4-tetrahydro-isoquinoline] registered a melting point of 178 to 179 °C.
On the same count and under the same terms, under `Cc1cc(N2CCc3ccccc3C2)ccn1` (as salt: fumarate) [Example 31, 2-(2-Methyl-pyridin-4-yl)-1,2,3,4-tetrahydro-isoquinoline] stands 155 to 156 °C; under `Cc1cc(N2CCc3ccccc3C2)cc(N)n1` (as salt: fumarate) [Example 32, 4-(3,4-Dihydro-1H-isoquinolin-2-yl)-6-methyl-pyridin-2-yl-amine], greater than 270 °C.
The same measure, in the same setting: for `Cc1cc(N2CCc3ccccc3C2)cc(NCCO)n1` (as salt: fumarate) [Example 35, 2-[4-(3,4-Dihydro-1H-isoquinolin-2-yl)-6-methyl-pyridin-2-yl-amino]-ethanol] the value was 160 °C; for `Nc1cc(N2CCc3ccccc3C2)nc2c1CCCC2` (as salt: hydrochloride) [Example 7, 2-(3,4-Dihydro-1H-isoquinolin-2-yl)-5,6,7,8-tetrahydro-quinolin-4-yl-amine], 109 to 110 °C; for `CN1COCc2c1ccnc2N1CCc2ccccc2C1` (as salt: hydrochloride) [Example 14, 5-(3,4-Dihydro-1H-isoquinolin-2-yl)-1-methyl-1,4-dihydro-2H-pyrido[4,3-d][1,3]oxazine], 220 to 221 °C.
The compound `NCc1cccc(N2CCc3ccccc3C2)n1` (as salt: hydrochloride) [Example 22, C-[6-(3,4-Dihydro-1H-isoquinolin-2-yl)-pyridin-2-yl]-methylamine] yielded a melting point of 192 to 195 °C.
Still for that read-out and setting: under `Clc1cccc2c1CCN(c1ccncc1)C2` (as salt: hydrochloride) [Example 25, 5-Chloro-2-pyridin-4-yl-1,2,3,4-tetrahydro-isoquinoline] stands 258 to 259 °C; under `Clc1ccc2c(c1)CCN(c1ccncc1)C2` (as salt: hydrochloride) [Example 27, 6-Chloro-2-pyridin-4-yl-1,2,3,4-tetrahydro-isoquinoline], greater than 250 °C.
Consider `Clc1ccc2c(c1)CN(c1ccncc1)CC2` (as salt: hydrochloride) [Example 28, 7-Chloro-2-pyridin-4-yl-1,2,3,4-tetrahydro-isoquinoline], for which the melting point lay within 100 to 101 °C.
As to `CCOC(=O)C(=O)Nc1cc(N2CCc3ccccc3C2)cc(C)n1` (as salt: hydrochloride) [Example 33, N-[4-(3,4-Dihydro-1H-isoquinolin-2-yl)-6-methyl-pyridin-2-yl]-oxalamic acid ethyl ester], the melting point is > 160 °C (dec.).
Still for that read-out and setting: under `CC1CN(c2cc(N)ccn2)Cc2ccccc21` (racemic) (as salt: fumarate) [Example 2, Rac.-2-(4-Methyl-3,4-dihydro-1H-isoquinolin-2-yl)-pyridin-4-yl-amine] stands 178 to 179 °C.
Same read-out and setting: under `CC1CN(c2ccncc2)Cc2ccccc21` (racemic) (as salt: hydrochloride) [Example 29, rac.-4-Methyl-2-pyridin-4-yl-1,2,3,4-tetrahydro-isoquinoline] stands 224 to 227 °C; under `Nc1cc(N2CCc3ccccc3C2)ccn1` [Example 30, 4-(3,4-Dihydro-1H-isoquinolin-2-yl)-pyridin-2-yl-amine], 160 to 161 °C.
In the case of `Cc1cc(N2CCc3ccccc3C2)cc(NC(=O)CO)n1` [Example 34, N-[4-(3,4-Dihydro-1H-isoquinolin-2-yl)-6-methyl-pyridin-2-yl]-2-hydroxy-acetamide], the melting point lay in the range of 160 to 162 °C.

In a further data set the target is T1, NMDA-receptor subtype 2B (Rattus norvegicus, UniProt P35439+Q00960).
T1 construct: Membranes were prepared by homogenization of the whole brain minus cerebellum and medulla oblongata; from tissue; host or cells: rat whole brain minus cerebellum and medulla oblongata (membranes)
T1 sequence (Q00960 27-1482, other chains not shown): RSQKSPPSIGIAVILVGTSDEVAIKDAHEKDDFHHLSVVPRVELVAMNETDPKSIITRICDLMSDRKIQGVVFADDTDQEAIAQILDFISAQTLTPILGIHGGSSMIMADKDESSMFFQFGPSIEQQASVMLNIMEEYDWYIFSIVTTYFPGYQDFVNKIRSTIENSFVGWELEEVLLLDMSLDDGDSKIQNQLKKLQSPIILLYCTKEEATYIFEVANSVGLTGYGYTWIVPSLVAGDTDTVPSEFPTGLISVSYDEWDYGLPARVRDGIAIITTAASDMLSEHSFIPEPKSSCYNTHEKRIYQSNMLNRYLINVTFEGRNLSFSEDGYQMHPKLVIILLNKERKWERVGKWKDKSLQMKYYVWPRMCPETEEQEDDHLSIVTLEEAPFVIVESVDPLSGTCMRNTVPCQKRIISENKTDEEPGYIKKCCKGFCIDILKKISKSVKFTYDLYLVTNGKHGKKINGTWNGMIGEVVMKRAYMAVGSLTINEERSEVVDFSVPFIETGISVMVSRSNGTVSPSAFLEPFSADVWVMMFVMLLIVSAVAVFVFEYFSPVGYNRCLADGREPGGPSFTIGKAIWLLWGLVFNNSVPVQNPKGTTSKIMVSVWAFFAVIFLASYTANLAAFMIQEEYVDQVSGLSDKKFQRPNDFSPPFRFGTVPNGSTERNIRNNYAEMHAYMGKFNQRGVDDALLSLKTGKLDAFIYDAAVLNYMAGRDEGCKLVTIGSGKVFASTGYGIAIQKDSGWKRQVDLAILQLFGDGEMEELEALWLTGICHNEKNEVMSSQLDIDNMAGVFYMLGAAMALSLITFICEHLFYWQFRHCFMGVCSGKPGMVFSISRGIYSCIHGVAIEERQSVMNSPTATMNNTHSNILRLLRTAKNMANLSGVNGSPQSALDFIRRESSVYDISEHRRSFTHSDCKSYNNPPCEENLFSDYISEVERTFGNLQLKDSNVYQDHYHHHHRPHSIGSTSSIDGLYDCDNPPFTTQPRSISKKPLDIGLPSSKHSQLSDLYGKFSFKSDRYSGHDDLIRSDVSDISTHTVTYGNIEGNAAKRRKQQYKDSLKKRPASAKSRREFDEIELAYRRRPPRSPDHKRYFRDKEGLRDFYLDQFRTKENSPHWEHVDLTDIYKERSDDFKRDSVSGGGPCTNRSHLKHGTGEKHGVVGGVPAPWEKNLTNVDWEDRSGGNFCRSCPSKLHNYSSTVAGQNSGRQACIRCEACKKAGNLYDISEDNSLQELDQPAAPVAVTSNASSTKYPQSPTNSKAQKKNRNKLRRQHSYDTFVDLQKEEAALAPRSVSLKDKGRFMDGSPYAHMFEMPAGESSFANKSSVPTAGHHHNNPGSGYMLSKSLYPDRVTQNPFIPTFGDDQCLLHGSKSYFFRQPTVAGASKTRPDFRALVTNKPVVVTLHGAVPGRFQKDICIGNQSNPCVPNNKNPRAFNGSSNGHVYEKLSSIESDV
Put plainly: 3H-Ro 25-6981 binding (displacement) on rat brain membranes. Particulars: displacement of 5 nM 3H-Ro 25-6981, rat whole brain minus cerebellum and medulla oblongata membranes, 2 hours at 4° C., pH 7.4. As to the method: ^3H-Ro 25-6981 binding (Ro 25-6981 is [R-(R*,S*)]-α-(4-hydroxy-phenyl)-β-methyl-4-(phenyl-methyl)-1-piperidine propanol)
Male Füllinsdorf albino rats weighing between 150-200 g were used. Membranes were prepared by homogenization of the whole brain minus cerebellum and medulla oblongata with a Polytron (10.000 rpm, 30 seconds), in 25 volumes of a cold Tris-HCl 50 mM, EDTA 10 mM, pH 7.1 buffer. The homogenate was centrifuged at 48,000 g for 10 minutes at 4° C. The pellet was resuspended using the Polytron in the same volume of buffer and the homogenate was incubated at 37° C. for 10 minutes. After centrifugation the pellet was homogenized in the same buffer and frozen at −80° C. for at least 16 hours but not more than 10 days. For the binding assay the homogenate was thawed at 37° C., centrifuged and the pellet was washed three times as above in a Tris-HCl 5 mM, pH 7.4 cold buffer. The final pellet was resuspended in the same buffer and used at a final concentration of […].
^3H-Ro 25-6981 binding experiments were performed using a Tris-HCl 50 mM, pH 7.4 buffer. For displacement experiments 5 nM of ^3H-Ro 25-6981 were used and non specific binding was measured using 10 mM of tetrahydroisoquinoline and usually it accounts for 10% of the total. The incubation time was 2 hours at 4° C. and the assay was stopped by filtration on Whatmann GF/B glass fiber filters (Unifilter-96, Packard, Zurich, Switzerland). The filters were washed 5 times with cold buffer. The radioactivity on the filter was counted on a Packard Top-count microplate scintillation counter after addition of […] of microscint 40 (Canberra Packard S. A., Züirich, Switzerland).
The above procedure was performed to determine data for calculation of an IC50 value. The IC50 value is a concentration expressed in micromoles (μM) for a test compound at which 50% of the ligand (in this determination, ^3H-Ro 25-6981) bonded to the receptor is displaced. The binding ability of the compounds of the invention was measured in vitro using a minimum of 10 concentrations and repeated at least once. The specific binding at each concentration was then calculated as the % of the maximum specific binding (100%) obtained in the same experiment, in the absence of a test compound. Competitive displacement of ^3H-Ro 25-6981 was observed, with complete displacement of the radioligand from specific binding sites (usually about 0% of specific binding at the highest concentrations tested). An IC50 value was then calculated with all the ten datapoints (% of specific bound) by plotting the data on a semilogarithmic scale with a sigmoidal fit (Log of the molar concentration on X-axis vs. % of specific bound on the Y-axis) using Microsoft Excel fit software or Microcal Origin software. The pooled normalized values were analyzed using a non-linear regression calculation program which provide IC50 with their relative upper and lower 95% confidence limits.
Take `Nc1ccnc(N2CCc3ccccc3C2)c1` [Example 1, 2-(3,4-Dihydro-1H-isoquinolin-2-yl)-pyridin-4-yl-amine]: the IC50 – broadly, the concentration that inhibits the measured activity by half – turned out to be 8 nM.
Regarding `Cc1cnc(N2CCc3ccccc3C2)cc1N` [Example 3, 2-(3,4-Dihydro-1H-isoquinolin-2-yl)-5-methyl-pyridin-4-yl-amine], the IC50 turned out to be 11 nM.
The same measure, in the same setting: under `Cc1cc(N)cc(N2CCc3ccccc3C2)n1` [Example 4, 2-(3,4-Dihydro-1H-isoquinolin-2-yl)-6-methyl-pyridin-4-yl-amine] stands 14 nM.
The same measure, in the same setting: under `CCc1cc(N)cc(N2CCc3ccccc3C2)n1` [Example 5, 2-(3,4-Dihydro-1H-isoquinolin-2-yl)-6-ethyl-pyridin-4-yl-amine] stands 5.3 nM; under `Nc1cc(CO)nc(N2CCc3ccccc3C2)c1` [Example 6, [4-Amino-6-(3,4-dihydro-1H-isoquinolin-2-yl)-pyridin-2-yl]-methanol], 11 nM.
The same measure, in the same setting: for `OCCNc1ccnc(N2CCc3ccccc3C2)c1` [Example 9, 2-[2-(3,4-Dihydro-1H-isoquinolin-2-yl)-pyridin-4-yl-amino]-ethanol] the value was 6 nM.
As for `Cc1cc(NCCO)cc(N2CCc3ccccc3C2)n1` [Example 10, 2-[2-(3,4-Dihydro-1H-isoquinolin-2-yl)-6-methyl-pyridin-4-yl-amino]-ethanol], the IC50 turned out to be 11 nM.
On the same count and under the same terms, under `Nc1cc(N2CCc3ccccc3C2)ccn1` [Example 30, 4-(3,4-Dihydro-1H-isoquinolin-2-yl)-pyridin-2-yl-amine] stands 4 nM; under `Cc1cc(N2CCc3ccccc3C2)ccn1` [Example 31, 2-(2-Methyl-pyridin-4-yl)-1,2,3,4-tetrahydro-isoquinoline], 20 nM; under `Cc1cc(N2CCc3ccccc3C2)cc(N)n1` [Example 32, 4-(3,4-Dihydro-1H-isoquinolin-2-yl)-6-methyl-pyridin-2-yl-amine], 11 nM.
The same measure, in the same setting: for `CCOC(=O)C(=O)Nc1cc(N2CCc3ccccc3C2)cc(C)n1` [Example 33, N-[4-(3,4-Dihydro-1H-isoquinolin-2-yl)-6-methyl-pyridin-2-yl]-oxalamic acid ethyl ester] the value was 20 nM; for `Cc1cc(N2CCc3ccccc3C2)cc(NCCO)n1` [Example 35, 2-[4-(3,4-Dihydro-1H-isoquinolin-2-yl)-6-methyl-pyridin-2-yl-amino]-ethanol], 4 nM.
